Experimental data reported in PubChem BioAssay AID248 (DTP/NCI, 2004).
Values joined by “and” are separate entries in the source; they are usually repeats but may differ in a detail not shown here. Equal values may be shown once. Inconclusive results and toxic doses are left out. No stated cut-off is given here; in the data, active means T/C of 150% or more; inactive means T/C below 125%.

Tested on: L1210 leukemia ip in BDF1 mice, survival T/C
Experiment: NCI In Vivo Anticancer Drug Screen. Data for tumor model L1210 Leukemia (intraperitoneal) in B6D2F1 (BDF1) mice
Details: endpoint: mean survival time, higher = longer survival
In short: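 Each compound was tested against a transplantable tumor grown in mice. The endpoint was survival, with treated animals benchmarked against vehicle controls as a simple ratio.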

[1] = dose: 100.0 mg/kg/injection, schedule: Q01DX001 (ip), vehicle: saline
[2] = dose: 200.0 mg/kg/injection, schedule: Q01DX001 (ip), vehicle: saline
[3] = dose: 400.0 mg/kg/injection, schedule: Q01DX001 (ip), vehicle: saline
[4] = dose: 100.0 mg/kg/injection, schedule: Q01DX009 (ip), vehicle: Klucel (hydroxypropylcellulose) (HPC)
[5] = dose: 100.0 mg/kg/injection, schedule: Q04DX003 (ip), vehicle: Klucel (hydroxypropylcellulose) (HPC)
[6] = dose: 200.0 mg/kg/injection, schedule: Q01DX009 (ip), vehicle: Klucel (hydroxypropylcellulose) (HPC)
[7] = dose: 200.0 mg/kg/injection, schedule: Q04DX003 (ip), vehicle: Klucel (hydroxypropylcellulose) (HPC)
[8] = dose: 400.0 mg/kg/injection, schedule: Q01DX009 (ip), vehicle: Klucel (hydroxypropylcellulose) (HPC)
[9] = dose: 400.0 mg/kg/injection, schedule: Q04DX003 (ip), vehicle: Klucel (hydroxypropylcellulose) (HPC)
[10] = dose: 100.0 mg/kg/injection, schedule: Q04DX002 (ip), vehicle: saline with Tween-80
[11] = dose: 200.0 mg/kg/injection, schedule: Q04DX002 (ip), vehicle: saline with Tween-80
[12] = dose: 50.0 mg/kg/injection, schedule: Q01DX001 (ip), vehicle: saline
[13] = dose: 50.0 mg/kg/injection, schedule: Q01DX009 (ip), vehicle: Klucel (hydroxypropylcellulose) (HPC)

Measured: T/C

COC(=O)c1ccc[n+](CCc2ccc(OC)c(OC)c2)c1
inactive: dose: 75.0 mg/kg/injection, schedule: Q01DX001 (ip), vehicle: saline 111 % of control

CSc1ccc(C(=O)C(CO)NC(C)=O)cc1 (stereo not given)
inactive: [1] 110 % of control | [2] 98 % of control | [3] 97 % of control

CC1(C)CC2(CC(C)(C)c3cc(O)c(O)cc32)c2cc(O)c(O)cc21
inactive: [4] 95 % of control | [5] 100 % of control | [6] 100 % of control | [7] 105 % of control | [8] 104 % of control | [9] 102 % of control

O=C(N/N=C/c1ccccc1O)c1ccccc1NC(=O)C1CC1
inactive: [4] 104 % of control | [6] 95 % of control | [8] 101 % of control

O=C(O)c1ccc2c(c1)C(=O)N(c1ccccc1)C2=O
inactive: [10] 93 % of control | [11] 93 % of control | dose: 400.0 mg/kg/injection, schedule: Q04DX002 (ip), vehicle: saline with Tween-80 97 % of control

CCCCSC(C)(C)CC
inactive: [12] 98 % of control | [1] 93 % of control | [2] 107 % of control | [3] 104 % of control

Cn1cnc2c1c(=O)[nH]c(=O)n2C
inactive: [4] 93 % of control | dose: 100.0 mg/kg/injection, schedule: Q01DX009 (ip), vehicle: saline 95 % of control | [6] 86 % of control | dose: 200.0 mg/kg/injection, schedule: Q01DX009 (ip), vehicle: saline 92 % of control | [8] 89 % of control

N#CCC1(O)c2ccccc2-c2ccccc21
inactive: [12] 98 % of control | [1] 98 % of control | [2] 102 % of control | [3] 96 % of control

N#CC1c2ccccc2C=CN1C(=O)c1ccccc1 (stereo not given)
inactive: dose: 50.0 mg/kg/injection, schedule: Q01DX009 (ip), vehicle: saline with Tween-80 95 % of control | [4] 92 % of control | [5] 94 % of control | dose: 100.0 mg/kg/injection, schedule: Q04DX003 (ip), vehicle: saline with Tween-80 97 % of control | [6] 97 % of control | dose: 200.0 mg/kg/injection, schedule: Q01DX009 (ip), vehicle: saline with Tween-80 93 % of control | [7] 98 % of control | dose: 200.0 mg/kg/injection, schedule: Q04DX003 (ip), vehicle: saline with Tween-80 94 % of control | [8] 92 % of control | dose: 400.0 mg/kg/injection, schedule: Q01DX009 (ip), vehicle: saline with Tween-80 95 % of control | [9] 94 % of control | dose: 400.0 mg/kg/injection, schedule: Q04DX003 (ip), vehicle: saline with Tween-80 96 % of control

COc1c2c([n+](C)c3c(OC)cccc13)OC(C(C)C)C2 (stereo not given)
inactive: dose: 0.5 mg/kg/injection, schedule: Q01DX009 (ip), vehicle: acetone 100 % of control | dose: 0.75 mg/kg/injection, schedule: Q01DX009 (ip), vehicle: saline 103 % of control | dose: 1.0 mg/kg/injection, schedule: Q01DX001 (ip), vehicle: saline 96 % of control | dose: 1.0 mg/kg/injection, schedule: Q01DX009 (ip), vehicle: acetone 120 % of control | dose: 1.0 mg/kg/injection, schedule: Q04DX003 (ip), vehicle: Klucel (hydroxypropylcellulose) (HPC) 97 % of control | dose: 1.0 mg/kg/injection, schedule: Q04DX003 (ip), vehicle: acetone 108 % of control | dose: 1.5 mg/kg/injection, schedule: Q01DX009 (ip), vehicle: saline 92 % of control | dose: 2.0 mg/kg/injection, schedule: Q01DX001 (ip), vehicle: saline 96 % of control | dose: 2.0 mg/kg/injection, schedule: Q04DX003 (ip), vehicle: Klucel (hydroxypropylcellulose) (HPC) 105 % of control | dose: 2.0 mg/kg/injection, schedule: Q04DX003 (ip), vehicle: acetone 119 % of control | dose: 4.0 mg/kg/injection, schedule: Q01DX001 (ip), vehicle: saline 98 % of control

CCCCCCCCC(=O)N1CC1
inactive: [13] 94 % of control | dose: 50.0 mg/kg/injection, schedule: Q04DX003 (ip), vehicle: Klucel (hydroxypropylcellulose) (HPC) 105 % of control | [4] 94 % of control | [5] 96 % of control | [6] 96 % of control | [7] 98 % of control

O=C(O)COc1cc(F)c([N+](=O)[O-])cc1[N+](=O)[O-]
inactive: dose: 100.0 mg/kg/injection, schedule: Q04DX002 (ip), vehicle: Klucel (hydroxypropylcellulose) (HPC) 90 % of control | dose: 200.0 mg/kg/injection, schedule: Q04DX002 (ip), vehicle: Klucel (hydroxypropylcellulose) (HPC) 97 % of control

COc1cccc(/C=C/c2cnc3ccccc3n2)c1OC
inactive: [13] 104 % of control | [4] 92 % of control

Clc1cc(Cl)c(OCC#CI)c(Cl)c1Cl
inactive: dose: 6.25 mg/kg/injection, schedule: Q01DX009 (ip), vehicle: Klucel (hydroxypropylcellulose) (HPC) 100 % of control | dose: 12.5 mg/kg/injection, schedule: Q01DX009 (ip), vehicle: Klucel (hydroxypropylcellulose) (HPC) 97 % of control | dose: 25.0 mg/kg/injection, schedule: Q01DX009 (ip), vehicle: Klucel (hydroxypropylcellulose) (HPC) 92 % of control | [13] 96 % of control | dose: 75.0 mg/kg/injection, schedule: Q01DX009 (ip), vehicle: Klucel (hydroxypropylcellulose) (HPC) 98 % of control | dose: 115.0 mg/kg/injection, schedule: Q01DX009 (ip), vehicle: Klucel (hydroxypropylcellulose) (HPC) 94 % of control | dose: 170.0 mg/kg/injection, schedule: Q01DX009 (ip), vehicle: Klucel (hydroxypropylcellulose) (HPC) 93 % of control

COC1OC(CO)C(OS(=O)(=O)c2ccc(C)cc2)C(C(=O)Oc2ccccc2)C1OC(=O)c1ccccc1 (stereo not given)
inactive: dose: 50.0 mg/kg/injection, schedule: Q04DX002 (ip), vehicle: saline with Tween-80 93 % of control | [10] 104 % of control | [11] 90 % of control
